In general, mass density refers to the mass of a sample divided by its volume.

This note sets out measurements from the NIST ThermoML archive (doi:10.1016/j.jct.2007.01.009).

Numbers after ± are expanded uncertainties.

The conditions of data set [1]: 101.33 kPa, Liquid.
The nature of data set [2]: xn = mol fraction of the nth substance listed. The settings on record: 283.15 K; 101 kPa; Liquid; Pycnometric method; x2 = 0.

In the case of `CCCCC(O)CO` (configuration not stated) [1,2-hexanediol], the mass density in data set [1] (283.15 K) amounted to 958.87 ± 1.2 kg/m3; in data set [1] (288.15 K), 955.23 ± 1.2 kg/m3; in data set [1] (293.15 K), 951.68 ± 1.2 kg/m3; in data set [1] (298.15 K), 948.08 ± 1.2 kg/m3; in data set [1] (303.15 K), 944.54 ± 1.2 kg/m3; in data set [1] (308.15 K), 940.88 ± 1.2 kg/m3.

As to `CC(O)CCCCO` (configuration not stated) [1,5-hexanediol], the mass density is 978.41 ± 0.69 kg/m3 in data set [1] (283.15 K); 975.51 ± 0.66 kg/m3 in data set [1] (288.15 K); 972.31 ± 0.64 kg/m3 in data set [1] (293.15 K); 968.91 ± 0.66 kg/m3 in data set [1] (298.15 K); 965.51 ± 0.67 kg/m3 in data set [1] (303.15 K); 962.15 ± 0.69 kg/m3 in data set [1] (308.15 K).

For the molecule `CC(O)CCC(C)O` (configuration not stated) [2,5-hexanediol], the mass density in data set [1] (283.15 K) is recorded as 968.85 ± 0.68 kg/m3; in data set [1] (288.15 K) it was 965.56 ± 0.65 kg/m3; in data set [1] (293.15 K) it was 962.17 ± 0.63 kg/m3; in data set [1] (298.15 K), 959.09 ± 0.65 kg/m3; in data set [1] (303.15 K) it was 955.72 ± 0.67 kg/m3; in data set [1] (308.15 K), 952.39 ± 0.68 kg/m3.

For the molecule `O` [water] + CC(O)CCC(C)O, the mass density in data set [2] worked out at 999.7 ± 0.3 kg/m3.

In the case of `O` [water] + CC(O)CCCCO, the mass density in data set [2] amounted to 999.7 ± 0.3 kg/m3.

For the molecule `O` [water] + CCCCC(O)CO, in data set [2], the mass density came to 999.69 ± 0.3 kg/m3.

For `O` [water] + OCCCCCCO, in data set [2], the mass density turned out to be 999.7 ± 0.3 kg/m3.
